# Experimental data as given in PMC11610669, “A Spectroscopic Study on the Amyloid‐β Interaction with Clicked Peptide‐Porphyrin Conjugates: a Vision Toward the Detection of Aβ Peptides in Aqueous Solution” (Chembiochem, 2024).
# What was measured:
# [1] = target: Aβ42 (Homo sapiens, UniProt P05067); assay: Grating-Coupled Interferometry (GCI) binding to immobilized Aβ42
# Procedure: The Grating‐Coupled Interferometry (GCI) is a widely used analytical technique for characterizing intermolecular interactions. It allows quantitative measurements of both the affinity and the kinetics of the binding events. This high sensitivity label‐free method was exploited to measure the interactions of Aβ42 with Cu‐Ph‐Pep , Ph‐Pep , and Zn‐Ph‐Pep (Figure 5S). Control experiments with pristine MCPTPyP and the peptide GPGKLVFF ( Pep ) were carried out for comparison. The calculated association and dissociation kinetic constants (kon and koff, respectively) and the thermodynamic binding constant (KD), are summarized in Table 1. The obtained values indicate that all the conjugates show good affinities with Aβ42. It is also clear from Table 1 that the peptide moiety is fundamental for the molecular recognition of the Aβ42 peptide.[48] […] Nevertheless, it is important to emphasize that the interaction with Aβ42 is primarily mediated by the peptide rather than by the porphyrin macrocycle. We next investigated whether these peptide derivatives could be employed as molecular probes for the detection of Aβ42 aggregated species. A new set of CD experiments was then carried out with Aβ42 at 20 μM both in the absence and in the presence of the porphyrin‐peptide conjugates at 1 : 1 molar ratio in the UV (195–350) and Visible (350–500) regions. […] The signal rapidly evolved toward the typical β‐sheet profile (already within 24 h) with a single minimum at 216 nm, an x‐axis intercept at 202 nm and a maximum shift at a wavelength 195 nm.[49] […] For the sake of comparison, the CD spectra of the porphyrin‐peptide conjugates at 20 μM were also recorded in the same experimental conditions, both in the far‐UV and Visible regions (Figure 6S).
# The experiments were performed on a Creoptix WAVE system (Creoptix). Borate buffer (100 mM sodium borate pH 9.0, 1 M NaCl) was used for chip conditioning. Aβ42 peptide (20 μg/ml in Na Acetate pH 4.5) was immobilized on 4PCH WAVE chips (quasiplanar polycarboxylate surface; Creoptix) according to the manufacturer instructions at a final density of 1910±40 pg/mm^2. Single‐cycle sequential injections of dilution series for each Porphyrin‐Peptide conjugates in running buffer (PBS, 0.005 % Tween 20, 1 % DMSO, 0.2 mg/ml BSA) were performed at 25 °C, using a flow rate of 100 μl/min. In details, for the conjugate Cu‐Ph‐Pep , 1 : 2 dilution series starting from 200 μM were injected for 10 s association time, 45 s dissociation time, followed by a dissociation time of 600 s for the last higher concentration injection. Finally, for the conjugates Ph‐Pep and Zn‐Ph‐Pep , 1 : 2 dilution series starting from 50 μM and 100 uM, respectively, were injected for 30 s association time, 45 s dissociation time, followed by a dissociation time of 600 s for the last higher concentration injection. Blank injections were used for double referencing and a DMSO calibration curve for bulk correction. Analysis and correction of the obtained data were performed using the Creoptix WAVE control software (correction applied: X and Y offset; DMSO calibration; double referencing). Mass transport binding models with bulk correction were used to fit all experiments. All the experiments have been performed at least in triplicate.
# Figure 5S. Quantitative binding kinetics of Aβ42 vs a) MCPTPyP; b) Cu-Ph-Pep; c) Ph-Pep; d) Zn-Ph-Pep; and e) Pep measured by GCI. All curves were blank subtracted. Experiments were performed in triplicate. All the quality assessments (i.e., χ2 shown in Table 1 of the main text , parameter errors, and residual plots were acceptable; the sensorgrams had sufficient curvatures an d the kinetic constant k off were within the measurable range) were fulfilled. Descriptive Statistical Analysis was employed to calculate the mean of the obtained values of k on, koff and KD as a measure of central tendency and standard deviations of the former values were computed as a measure of dispersion.
# Figure 6S. […]
# [2] = test system: SH-SY5Y; assay: Live cell confocal fluorescence imaging; format: cell-based, human; conditions: RA-differentiated SH-SY5Y, 5 μM, 24 h, excitation 405 nm, emission 600–700 nm
# Procedure: The intracellular localization of porphyrins in living cells has already been reported in the literature.[50, 51] […] The ability of our compounds to associate with cells or to be taken up by them was investigated by live cell confocal fluorescence and flow cytometry. For this purpose, we exploited the fluorescence of the porphyrin moiety. Fully differentiated SH‐SY5Y cells were exposed to 5 μM of each compound for 24 h, and then fluorescence spectra inside and outside cells were measured as described in the experimental section. The images reported in Figure 6, panel a, show the emission spectra recorded (pixel by pixel) inside cells, compared to the emission spectra recorded for control cells (no porphyrins in the growth medium). A specific porphyrin signal recorded between 600 nm and 700 nm only in the exposed sample, provides evidence that the porphyrin‐conjugated compounds are distributed within the cells. We first measured the emission spectra of each compound to confirm that the fluorescent properties measured in vitro were maintained under the conditions applied during the biological assay. Once the specific emission peak typical of porphyrins was detected inside the cells, we measured the average fluorescence intensity for each compound under study. Although modest, the signal was detected in almost every cell under the microscope stage. […]
# Chain of Aβ42 (P05067 672-713 limits assumed): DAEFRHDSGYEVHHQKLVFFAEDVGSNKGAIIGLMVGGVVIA
smiles,measurement,setting,value
"C[n+]1ccc(-c2c3nc(c(-c4cc[n+](C)cc4)c4ccc([nH]4)c(-c4cc[n+](C)cc4)c4nc(c(-c5ccc(C(=O)O)cc5)c5ccc2[nH]5)C=C4)C=C3)cc1.[Cl-].[Cl-].[Cl-] [MCPTPyP, 5‐(4‐carboxyphenyl)‐10,15,20‐(tri‐N‐Methyl‐4‐Pyridyl) Porphyrin trichloride, reference compound]",Kd,"[1]; GCI (Creoptix WAVE), Aβ42 immobilized on 4PCH chip, PBS, 0.005 % Tween 20, 1 % DMSO, 0.2 mg/ml BSA, 25 °C, 100 μl/min, mass transport binding model, mean ± SD, at least triplicate",215 ± 13 µM
same,"χ^2 (average of the squared residuals, fitting confidence)",[1]; GCI fit quality parameter,0.63±0.06
same,cell entry / intracellular distribution,[2],able to cross the plasma membrane and to distribute within the cells
